The source of these data is patent US12240920B2, “Cyclic peptidomimetic for the treatment of neurological disorders” (Brown University, priority 2019, dated 2025).

In data set [1] the test system is repeated corticosterone-injected rats. The conditions noted are these: CORT administration model; cited from earlier work.
A further data set in a line: in vivo. The conditions noted are these: plasma.

`CNC1(c2ccccc2Cl)CCCCC1=O` (centres unmarked) [ketamine]: the depressive-like behavior result in data set [1] is “significantly reduced depressive-like behavior”. By half-life is commonly meant how long it takes for the measured level to halve. Higher therefore signals slow loss. As for `CC(C)[C@H](NC(=O)[C@@H]1CCC(=O)NCCC(=O)NCCCC[C@H](NC(=O)[C@H](CCCCN)NC(=O)[C@H](Cc2ccc(O)cc2)NC(=O)[C@H](CC(N)=O)NC(=O)[C@H](CCCCN)NC(=O)[C@@H](N)CSSC[C@@H](N)C(=O)N[C@@H](CCCNC(=N)N)C(=O)N[C@@H](CCCNC(=N)N)C(=O)N[C@@H](CCCNC(=N)N)C(=O)N[C@@H](CCCNC(=N)N)C(=O)N[C@@H](CCCNC(=N)N)C(=O)N[C@@H](CCCNC(=N)N)C(=O)N[C@@H](CCCNC(=N)N)C(N)=O)C(=O)N[C@@H]([C@@H](C)O)C(=O)N1)C(=O)O` [CN2097, R7Cs-sCYK[KTE(β-Ala)]V], the half-life in “in vivo” was approximately 1 h.
